In patent US9617256B2 (priority 2007, dated 2017):
Converted amounts (≈) assume the structure as drawn. Like-named read-outs stand apart in the source and are kept apart here.

How the values were obtained:
[1] = tested on: APAE006 in the presence of 8 micrograms per milliliter of polymyxin B nonapeptide; assay type: cell-based, P. aeruginosa; conditions: APAE006 with 8 micrograms per milliliter polymyxin B nonapeptide
How it was run: (§1)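 Incubation: 35° C., ambient air, 18-24 h. Medium: cation-adjusted Mueller-Hinton broth with 2-fold serial dilutions of drug. Inoculum: 3×10^5–7×10^5 CFU/mL final, per CLSI microdilution method.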

[2] = tested on: AABA1060 (clinical isolate of Acinetobacter baumannii); assay: MIC broth microdilution, AABA1060; assay type: cell-based; conditions: Acinetobacter baumannii, read-out: MIC AABA1060
How it was run: as §1

APAE001 (ATCC27853) = assay: MIC broth microdilution, APAE001; assay type: cell-based, P. aeruginosa; conditions: Pseudomonas aeruginosa
How it was run: as §1

AECO001 (ATCC25922) = assay: MIC broth microdilution, AECO001; assay type: cell-based, E. coli; conditions: Escherichia coli
How it was run: as §1

[3] = tested on: APAE006 (strain of P. aeruginosa in which all efflux pumps are inactivated); assay: microbe, parasite or virus in culture; assay type: cell-based; conditions: Pseudomonas aeruginosa
How it was run: as §1

[4] = tested on: AECO063 (ATCC25922 bearing an acrAB mutation); assay: microbe, parasite or virus in culture; assay type: cell-based, E. coli; conditions: Escherichia coli, ATCC25922, read-out: MIC AECO063
How it was run: as §1

[5] = tested on: ASAU001 (laboratory strain of S. aureus, ATCC29213); assay: MIC broth microdilution, ASAU001; assay type: cell-based; conditions: Staphylococcus aureus, ATCC29213, read-out: MIC ASAU001
How it was run: as §1

AECO001 HSA AGP = assay: MIC broth microdilution, AECO001 HSA AGP; assay type: cell-based, E. coli; conditions: Escherichia coli
Experimental: Bacterial isolates were cultivated from −70° C. frozen stocks by overnight passages at 35° C. in ambient air on Mueller-Hinton agar (Beckton Dickinson, Franklin Lakes, N.J.). Clinical isolates tested were obtained from various geographically diverse hospitals in the US and abroad (Focus Diagnostics, Herndon, Va. and JMI, North Liberty, Iowa). Quality control strains were from the American Type Culture Collection (ATCC; Rockville, Md.). Additional primary panel strains were generated using standard molecular biology techniques.
Minimum Inhibitory Concentrations (MICs) were determined by the broth microdilution method in accordance with the Clinical and Laboratory Standards Institute (CLSI) guidelines. In brief, organism suspensions were adjusted to a 0.5 McFarland standard to yield a final inoculum between 3×10^5 and 7×10^5 colony-forming units (CFU)/mL. Drug dilutions and inocula were made in sterile, cation adjusted Mueller-Hinton Broth (Beckton Dickinson). An inoculum volume of 100 μL was added to wells containing 100 μL of broth with 2-fold serial dilutions of drug. All inoculated microdilution trays were incubated in ambient air at 35° C. for 18-24 hours. […] Performance of the assay was monitored by the use of laboratory quality-control strains and levofloxacin, a compound with a defined MIC spectrum, in accordance with CLSI guidelines.
*AECO001 is ATCC25922, AECO063 is ATCC25922 bearing an acrAB mutation, APAE001 is ATCC27853, APAE006 is a strain of P. aeruginosa in which all efflux pumps are inactivated, APAE006+PMBN indicates MICs with the indicated strain in the presence of 8 micrograms per milliliter of polymyxin B nonapeptide, AABA1060 is a clinical isolate of Acinetobacter baumannii, ASAU001 is a laboratory strain of S. aureus (ATCC29213).

[6] = ATCC27853, read-out: MIC APAE001, APAE001 (ATCC27853)
[7] = ATCC25922, read-out: MIC AECO001
[8] = ATCC25922, read-out: MIC AECO001 HSA AGP
[9] = read-out: MIC APAE006, APAE006, all efflux pumps inactivated
[10] = ATCC27853, read-out: MIC APAE001, APAE001 is ATCC27853
[11] = read-out: MIC APAE006, P. aeruginosa, all efflux pumps inactivated

With `CC(C)CCC#CC#Cc1ccc(C(=O)N[C@H](C(=O)NO)[C@@H](C)N)cc1` [Example 91-28] as the compound, how does the “MIC APAE006 + PMBN” value [1] read?
Its value is “A (MIC's of 2.0 μg/mL or less = A)”.

And the MIC [2]?
The MIC was 2 to 16 µg/mL (≈ 5.63 to 45 µM).

What about the MIC (APAE001 (ATCC27853); [6]) of the same compound?
The MIC was 2 to 16 µg/mL (≈ 5.63 to 45 µM).

What about the MIC (AECO001 (ATCC25922); [7]) of the same compound?
The MIC was less than 2 µg/mL.

What about the MIC (AECO001 (ATCC25922); [8]) of the same compound?
Its MIC is 2 to 16 µg/mL (≈ 5.63 to 45 µM).

What about the MIC [3, 9] of the same compound?
Its MIC is less than 2 µg/mL.

What about the MIC [4] of the same compound?
The MIC was less than 2 µg/mL.

And the MIC [5]?
Its MIC is 2 to 16 µg/mL (≈ 5.63 to 45 µM).

How did the “MIC APAE006 + PMBN” value [1] turn out when `NC[C@H](NC(=O)c1ccc(C#Cc2ccc(CNC(=O)CCC(=O)O)cc2)cc1)C(=O)NO` [Example 137-11] was run?
Its value is “B (MIC's of greater than 2.0 μg/mL to 16.0 μg/mL = B)”.

What about the MIC [2] of the same compound?
Its MIC is greater than 64 µg/mL.

What about the MIC (APAE001 (ATCC27853); [6]) of the same compound?
The MIC was 16 to 64 µg/mL (≈ 35.4 to 141 µM).

What about the MIC (AECO001 (ATCC25922); [7]) of the same compound?
Its MIC is greater than 64 µg/mL.

And the MIC (AECO001 (ATCC25922); [8])?
Its MIC is greater than 64 µg/mL.

What about the MIC [3, 9] of the same compound?
Its MIC is 2 to 16 µg/mL (≈ 4.42 to 35.4 µM).

What about the MIC [4] of the same compound?
Its MIC is 16 to 64 µg/mL (≈ 35.4 to 141 µM).

And the MIC [5]?
Its MIC is greater than 64 µg/mL.

`C[C@@H](N)[C@H](NC(=O)c1ccc(C#Cc2ccc(CNCC(F)(F)F)cc2)cc1)C(=O)NO` [Example 137-16] was tested. Which “MIC APAE006 + PMBN” value [1] did it give?
The value was “A (MIC's of 2.0 μg/mL or less = A)”.

And the MIC [2]?
The MIC was 2 to 16 µg/mL (≈ 4.46 to 35.7 µM).

What about the MIC (APAE001 (ATCC27853); [6]) of the same compound?
The MIC was 2 to 16 µg/mL (≈ 4.46 to 35.7 µM).

And the MIC (AECO001 (ATCC25922); [7])?
The MIC was less than 2 µg/mL.

What about the MIC (AECO001 (ATCC25922); [8]) of the same compound?
Its MIC is 2 to 16 µg/mL (≈ 4.46 to 35.7 µM).

What about the MIC [3, 9] of the same compound?
Its MIC is less than 2 µg/mL.

What about the MIC [4] of the same compound?
The MIC was less than 2 µg/mL.

And the MIC [5]?
The MIC was 16 to 64 µg/mL (≈ 35.7 to 143 µM).

Which MIC [2] does the source give for `CC(C)(O)[C@H](NC(=O)c1ccc(C#CC#Cc2cccnc2)cc1)C(=O)NO` [Example 88-5] here?
The MIC was less than 2 µg/mL.

And the MIC (APAE001 (ATCC27853); [10])?
The MIC was 2 to 16 µg/mL (≈ 5.3 to 42.4 µM).

And the MIC (AECO001 (ATCC25922); [7])?
The MIC was less than 2 µg/mL.

And the MIC [3, 11]?
The MIC was less than 2 µg/mL.

What about the MIC [4] of the same compound?
Its MIC is less than 2 µg/mL.

And the MIC [5]?
Its MIC is 16 to 64 µg/mL (≈ 42.4 to 170 µM).

And the MIC (AECO001 HSA AGP)?
Its MIC is less than 2 µg/mL.

`CC(C)(N)[C@H](NC(=O)c1ccc(C#CC#Cc2cncnc2)cc1)C(=O)NO` [Example 89-6] was tested. Which “MIC APAE006 + PMBN” value [1] did it give?
Its value is “A (MIC's of 2.0 μg/mL or less = A)”.

What about the MIC [2] of the same compound?
Its MIC is 2 to 16 µg/mL (≈ 5.3 to 42.4 µM).

What about the MIC (APAE001 (ATCC27853); [6]) of the same compound?
The MIC was less than 2 µg/mL.

What about the MIC (AECO001 (ATCC25922); [7]) of the same compound?
Its MIC is 2 to 16 µg/mL (≈ 5.3 to 42.4 µM).

What about the MIC (AECO001 (ATCC25922); [8]) of the same compound?
The MIC was 2 to 16 µg/mL (≈ 5.3 to 42.4 µM).

And the MIC [3, 9]?
The MIC was less than 2 µg/mL.

What about the MIC [4] of the same compound?
Its MIC is less than 2 µg/mL.

And the MIC [5]?
Its MIC is 16 to 64 µg/mL (≈ 42.4 to 170 µM).

How did the “MIC APAE006 + PMBN” value [1] turn out when `C[C@@H](N)[C@H](NC(=O)c1ccc(C#CC#Cc2ccc(NS(C)(=O)=O)cc2)cc1)C(=O)NO` [Example 93-1, N-((2S,3R)-3-amino-1-(hydroxyamino)-1-oxobutan-2-yl)-4-((4-(methylsulfonamido)phenyl)buta-1,3-diynyl)benzamide] was run?
Its value is “A (MIC's of 2.0 μg/mL or less = A)”.

And the MIC [2]?
The MIC was less than 2 µg/mL.

And the MIC (APAE001 (ATCC27853); [6])?
Its MIC is less than 2 µg/mL.

What about the MIC (AECO001 (ATCC25922); [7]) of the same compound?
Its MIC is less than 2 µg/mL.

What about the MIC (AECO001 (ATCC25922); [8]) of the same compound?
Its MIC is 16 to 64 µg/mL (≈ 35.2 to 141 µM).

And the MIC [3, 9]?
The MIC was less than 2 µg/mL.

And the MIC [4]?
Its MIC is less than 2 µg/mL.

What about the MIC [5] of the same compound?
The MIC was 16 to 64 µg/mL (≈ 35.2 to 141 µM).

Which results are given for `C[C@@H](O)[C@H](NC(=O)c1ccc(Cc2ccc(CN3CCOCC3)cc2)cc1)C(=O)NO` [Example 48-5, N-((1S,2R)-2-Hydroxy-1-hydroxycarbamoyl-propyl)-4-(4-morpholin-4-ylmethyl-benzyl)-benzamide]?
MIC [2]: > 64 µg/mL; MIC (APAE001 (ATCC27853); [10]): > 64 µg/mL; MIC (AECO001 (ATCC25922); [7]): > 64 µg/mL; MIC [3, 11]: > 64 µg/mL; MIC [4]: > 64 µg/mL; MIC [5]: > 64 µg/mL; MIC (AECO001 HSA AGP): > 64 µg/mL

`C[C@@H](N)[C@H](NC(=O)c1ccc(C#C/C=C/C2CC2)cc1)C(=O)NO` [Example 107-2] was tested. Which “MIC APAE006 + PMBN” value [1] did it give?
The value was “A (MIC's of 2.0 μg/mL or less = A)”.

What about the MIC [2] of the same compound?
The MIC was less than 2 µg/mL.

What about the MIC (APAE001 (ATCC27853); [6]) of the same compound?
The MIC was less than 2 µg/mL.

What about the MIC (AECO001 (ATCC25922); [7]) of the same compound?
Its MIC is less than 2 µg/mL.

And the MIC (AECO001 (ATCC25922); [8])?
The MIC was 2 to 16 µg/mL (≈ 6.11 to 48.9 µM).

And the MIC [3, 9]?
Its MIC is less than 2 µg/mL.

What about the MIC [4] of the same compound?
Its MIC is less than 2 µg/mL.

What about the MIC [5] of the same compound?
The MIC was 2 to 16 µg/mL (≈ 6.11 to 48.9 µM).

`CCOCc1ccc(C#CC#Cc2ccc(C(=O)N[C@H](C(=O)NO)[C@@H](C)O)cc2)cc1` [Example 82-20] was tested. Which “MIC APAE006 + PMBN” value [1] did it give?
The value was “A (MIC's of 2.0 μg/mL or less = A)”.

What about the MIC [2] of the same compound?
Its MIC is 2 to 16 µg/mL (≈ 4.76 to 38.1 µM).

What about the MIC (APAE001 (ATCC27853); [6]) of the same compound?
The MIC was 2 to 16 µg/mL (≈ 4.76 to 38.1 µM).

What about the MIC (AECO001 (ATCC25922); [7]) of the same compound?
The MIC was less than 2 µg/mL.

And the MIC (AECO001 (ATCC25922); [8])?
Its MIC is 2 to 16 µg/mL (≈ 4.76 to 38.1 µM).

What about the MIC [3, 9] of the same compound?
Its MIC is less than 2 µg/mL.

And the MIC [4]?
The MIC was less than 2 µg/mL.

And the MIC [5]?
Its MIC is 16 to 64 µg/mL (≈ 38.1 to 152 µM).
